According to patent US20230365492A1, “LITHIUM ORGANIC ACID-AMINO ACID SALT, AND CRYSTAL FORM, COMPOSITION AND APPLICATION THEREOF” (ANYU BIOTECHNOLOGY (HANGZHOU) CO., LTD., priority 2020, published 2023):
Entries after “also recorded” stand apart in the source; their conditions may differ.

How the values were obtained:
Notch protein = conditions: SH-SY5Y cells, 3 hours, concentration of less than 50 mM, Western blot
Description: GAPDH was used as an internal reference protein. A Notch protein is an important signaling molecule at the downstream of GSK-3, and plays an important positive role in regulating the proliferation and survival of cells.

tau protein = conditions: SH-SY5Y cells, 3 hours, Western blot
Description: (§1) GAPDH was used as an internal reference protein.

HEK293 cells = conditions: 5 mM, 4 hours, confocal microscope
GSK-3β [1] = molecular target: GSK-3β (Cricetulus griseus, UniProt A0A061I155); conditions: CHO cells, treated 2 hours, 0-50 mM (vs lithium isobutyrate) or 0-90 mM (vs lithium carbonate), Western blot, GAPDH reference
Sequence of GSK-3β (Cricetulus griseus, UniProt A0A061I155) (A0A061I155 1-428): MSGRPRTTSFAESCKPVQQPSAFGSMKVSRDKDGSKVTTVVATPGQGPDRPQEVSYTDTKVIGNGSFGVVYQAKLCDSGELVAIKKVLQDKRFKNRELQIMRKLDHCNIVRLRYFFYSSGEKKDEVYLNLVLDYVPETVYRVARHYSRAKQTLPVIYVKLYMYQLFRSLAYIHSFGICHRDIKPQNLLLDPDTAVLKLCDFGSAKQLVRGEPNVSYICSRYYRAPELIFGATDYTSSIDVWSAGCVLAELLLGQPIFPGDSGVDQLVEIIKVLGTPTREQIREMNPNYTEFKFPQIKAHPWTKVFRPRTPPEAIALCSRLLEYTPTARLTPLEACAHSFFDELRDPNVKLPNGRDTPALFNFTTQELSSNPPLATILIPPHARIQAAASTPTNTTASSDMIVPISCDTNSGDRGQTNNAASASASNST
Description: The cells were continuously subjected to lysis by an RIPA buffer containing a protease inhibitor, followed by detection by Western blot with phosphorylated GSK-3β (Ser9) or a total GSK-3β antibody as an antibody.
GAPDH (glyceraldehyde-3-phosphate dehydrogenase) was used as an internal reference protein.

GSK-3β [2] = molecular target: GSK-3β (Mus musculus, UniProt Q9WV60); conditions: APP/PS1 mice, gavage, 0.02 and 0.08 mmol/mouse, 4 hours after administration
Sequence of GSK-3β (Mus musculus, UniProt Q9WV60) (Q9WV60 whole entry): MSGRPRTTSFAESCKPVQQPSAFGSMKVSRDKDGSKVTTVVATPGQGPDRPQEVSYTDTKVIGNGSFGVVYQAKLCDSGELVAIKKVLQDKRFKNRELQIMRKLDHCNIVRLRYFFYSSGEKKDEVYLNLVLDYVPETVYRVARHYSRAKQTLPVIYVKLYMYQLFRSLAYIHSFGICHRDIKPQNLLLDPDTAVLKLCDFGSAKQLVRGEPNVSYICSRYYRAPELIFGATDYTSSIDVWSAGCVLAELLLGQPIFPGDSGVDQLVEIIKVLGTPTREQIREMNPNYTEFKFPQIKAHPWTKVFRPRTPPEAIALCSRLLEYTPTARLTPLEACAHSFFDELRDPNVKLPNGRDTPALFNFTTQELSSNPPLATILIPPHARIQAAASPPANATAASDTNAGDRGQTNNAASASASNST
Description: Brain tissues were extracted, and a homogenate of the brain tissues was prepared.

β-catenine = conditions: CHO cells, 0-50 mM, 2 hours, Western blot
Description: as §1

Description for Kunming mice: According to the Horn's method, 40 Kunming mice (with the weight of 19.8-22 g, including half male mice and half female mice) were divided into four groups at an equal ratio of 2.15, including a 464 mg/kg dose group, a 1,000 mg/kg dose group, a 2,150 mg/kg dose group and a 4,640 mg/kg dose group (each group was orally administrated at one time and includes 10 mice with half male mice and half female mice). […] 24 hours later, poisoning symptoms, occurrence time and death time of the experimental animals were observed every day for an observation period of 14 days. Dead animals and other animals sacrificed within 14 days were subjected to gross anatomy. When gross pathological changes were observed by naked eyes, pathological examination was performed.

Q: What does the source list for O=C([O-])[O-].[Li+].[Li+] [lithium carbonate, reference compound]?
A: Notch protein expression (Notch protein): obvious inhibition effect on the Notch protein expression; concentration at which an effect on total tau protein expression is seen (tau protein): 6.25 mM; symptoms of experimental animals (Kunming mice; oral, 464 mg/kg and 1,000 mg/kg dose groups): no abnormalities; symptoms and death of experimental animals (Kunming mice; oral, 2,150 mg/kg and 4,640 mg/kg dose groups, within 24 hours): abnormal posture symptoms within 24 hours and are all dead; change in morphology of HEK293 cells (HEK293 cells): obvious change in morphology; inhibition of the activity of GSK-3β (phosphorylated GSK-3β (Ser9) expression) (GSK-3β [1]): obviously lower than that of the lithium isobutyrate-L-proline salt

Q: Which results are given for lithium isobutyrate-L-proline salt?
A: effect on phosphorylated GSK-3β (Ser9) expression in brain tissues (GSK-3β [2]): significantly better than that of the lithium carbonate; Notch protein expression (Notch protein): no influence on the Notch expression; cell survival related protein (β-catenine) expression (β-catenine): significantly increases the cell survival related protein (β-catenine) expression in a dose-dependent manner; total tau protein expression (tau protein; 0-50 mM): significantly decrease the total tau protein expression in a concentration-dependent manner; concentration at which an effect on total tau protein expression is seen (tau protein): 3.125 mM; inhibition of the activity of GSK-3β (phosphorylated GSK-3β (Ser9) expression) (GSK-3β [1]): significantly decreased phosphorylated GSK-3β (Ser9) expression in a dose-dependent manner; also recorded: dose-dependent inhibition effect on the GSK-3β, and the inhibition effect is stable
